Target: T1, Lipoxygenase in platelet (Homo sapiens, UniProt P18054)
T1 construct: the metabolism of radioactively labelled arachidonic acid on washed human platelets is used; endogenous in cells; host or cells: washed human platelets
T1 sequence (P18054 1-663): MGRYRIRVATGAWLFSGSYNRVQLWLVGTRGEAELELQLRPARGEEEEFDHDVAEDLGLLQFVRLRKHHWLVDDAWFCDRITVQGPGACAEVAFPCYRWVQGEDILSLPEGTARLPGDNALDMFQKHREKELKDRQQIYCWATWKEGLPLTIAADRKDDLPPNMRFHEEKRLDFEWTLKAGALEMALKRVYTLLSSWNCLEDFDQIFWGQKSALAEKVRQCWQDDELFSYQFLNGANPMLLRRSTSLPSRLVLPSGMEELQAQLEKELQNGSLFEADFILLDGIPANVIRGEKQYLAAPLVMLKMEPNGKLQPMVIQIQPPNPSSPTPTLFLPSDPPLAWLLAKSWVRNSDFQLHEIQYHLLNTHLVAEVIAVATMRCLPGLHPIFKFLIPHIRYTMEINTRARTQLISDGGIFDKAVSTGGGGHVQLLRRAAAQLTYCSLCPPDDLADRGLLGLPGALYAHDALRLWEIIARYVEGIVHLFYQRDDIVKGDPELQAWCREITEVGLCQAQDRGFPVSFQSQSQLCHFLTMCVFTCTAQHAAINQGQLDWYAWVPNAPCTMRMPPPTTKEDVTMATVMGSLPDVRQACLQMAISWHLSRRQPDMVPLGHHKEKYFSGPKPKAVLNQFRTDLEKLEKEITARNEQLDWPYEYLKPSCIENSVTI
Assay: Inhibition of lipoxygenase in washed human platelets (HETE synthesis from radioactively labelled arachidonic acid)
Format: cell-based
Conditions: in vitro
Protocol: In this test method, the metabolism of radioactively labelled arachidonic acid on washed human platelets is used. In this in vitro test, the radioactively labelled metabolites are extracted from the reaction mixture and separated by thin-layer chromatography. The autoradiogram is evaluated on a thin-layer scanner. Under these test conditions, the labelled metabolites are separated from the unreacted arachidonic acid and can then be evaluated quantitatively. The distribution of radioactivity over the products of cyclooxygenase formed during the metabolism, thromboxane B2 (TXB2) and 12-hydroxy-5,8,10-heptadecatrienoic acid (HHT) and the product of lipoxygenase, 12-hydroxy-5,8,11,14-eicosatetraenoic acid (HETE), under the influence of the inhibitors provides a measure of the inhibition of the enzymes.
The inhibition of lipoxygenase by the compounds according to the invention can be measured by the inhibition of synthesis of HETE. It emerges that the synthesis of TXB2 and of HHT remains unaffected, whilst the conversion of arachidonic acid decreases. […] (Compare Table 1).

Minimum concentration (g/ml) for inhibition of Lipoxygenase in platelet	SMILES
10^-6 g/ml	Clc1ccc2c(c1)Nc1[nH]ncc1S2
10^-5 g/ml	CN(C)S(=O)(=O)c1ccc2c(c1)Oc1cn[nH]c1N2

System: Lipoxygenase in PMN Leucocytes
Assay: Inhibition of lipoxygenase in PMN leucocytes (liberation of 5-HETE and leukotriene B4)
Format: cell-based, humans and rabbits
Conditions: in vitro
Protocol: The polymorphonuclear leucocytes of humans and of rabbits metabolise arachidonic acid to 5-hydroxy-5,8,11,14-eicosatetraenoic acid (5-HETE) and leukotriene B4 (5S, 12R-dihydroxy-6 cis, 8,10-trans-14 cis-eicosatetraenoic acid). The inhibition of the liberation of 5-HETE and leukotriene B4 from the leucocytes provides a measure of the lipoxygenase-inhibitory effect of the compounds according to the invention. (Compare Table 1).
The test with human leucocytes is carried out by the method of Borgeat and Samuelsson (j. Biol. Chem. 254; 2643, 1979 and Proc. Natl. Acad. Sci. USA, 76, 2148 (1979), and with rabbit leucocytes by the method of Walker and Parish (Inter. Archs. Allergy appl. Immun. 66, 83, 1981).

SMILES	Minimum concentration (g/ml) for inhibition of Lipoxygenase in PMN Leucocytes
COc1ccc2c(c1)Nc1[nH]ncc1O2	< 10^-6 g/ml
CN1c2ccccc2Cc2cn(C(=O)OCc3ccccc3)nc21	> 10^-5 g/ml
Oc1ccc2c(c1)Nc1[nH]ncc1O2	< 10^-6 g/ml
CCN1c2cc(OC)ccc2Oc2cnn(C)c21 [Compound 50]	10^-5 g/ml
FC(F)(F)c1ccc2c(c1)Nc1[nH]ncc1O2	< 10^-5 g/ml
c1ccc2c(c1)Oc1cn[nH]c1N2CC1CCCCC1	10^-5 g/ml
c1ccc(CN2c3ccccc3Oc3cn[nH]c32)cc1	10^-6 g/ml
CN1c2ccccc2Cc2cnn(-c3ccccc3)c21	> 10^-5 g/ml
c1ccc(N2c3ccccc3Cc3cn[nH]c32)cc1	> 10^-5 g/ml
COc1ccc2c(c1)Oc1cnn(C)c1N2C	> 10^-5 g/ml
CN1c2ccccc2Oc2cn(C(=O)c3ccccn3)nc21 [drawing 53]	> 10^-5 g/ml
COc1ccc2c(c1)N(C)c1nn(C)cc1O2	> 10^-5 g/ml
CCOC(=O)Cn1cc2c(n1)N(C1CCCCC1)c1ccccc1O2 [drawing 50]	> 10^-5 g/ml
CN1c2nn(C)cc2Cc2cccc(Br)c21 [Compound 30]	10^-5 g/ml
c1ccc(COCCN2c3ccccc3Oc3cn[nH]c32)cc1	10^-5 g/ml
c1ccc2c(c1)Oc1cn[nH]c1N2C1CCCCC1 [drawing 56]	10^ -6 g/ml
CCN1c2cc(OCC(=O)O)ccc2Oc2cn(C)nc21	10^ -5 g/ml
CN1c2ccccc2Oc2cn(CCOc3ccc4ccccc4c3)nc21	> 10^-5 g/ml
CCOC(=O)CN1c2ccccc2Oc2cn[nH]c21	> 10^-5 g/ml
CN1c2cc(SC(F)(F)F)ccc2Oc2cn[nH]c21 [Compound 71]	< 10^-5 g/ml
CC(=O)n1cc2c(n1)N(C)c1ccccc1C2 [drawing 38]	> 10^-5 g/ml
CN1c2ccccc2Cc2cnn(C(=O)c3ccc(Cl)cc3)c21	> 10^-5 g/ml
CCN1c2ccc(OC)cc2Oc2cn[nH]c21	< 10^-5 g/ml
COc1ccc2c(c1)N(C)c1[nH]ncc1O2 [drawing 47]	< 10^-6 g/ml
Cn1cc2c(n1)N(c1ccccc1)c1ccccc1C2	> 10^-5 g/ml
c1c2c(cc3c1OCO3)Oc1cn[nH]c1N2	< 10^-5 g/ml

SMILES	Minimum concentration (g/ml) for inhibition of Lipoxygenase in PMN Leucocytes
Clc1cc(Cl)c2c(c1)Nc1[nH]ncc1O2	10^-6 g/ml
CCN1c2cc(OCC(=O)OCc3ccccc3)ccc2Oc2cn(C)nc21	10^-5 g/ml
CCN1c2cc(O)ccc2Oc2cn(C)nc21	< 10^-5 g/ml
CCN1c2cc(OC)ccc2Oc2cn[nH]c21	< 10^-6 g/ml
CC(=O)n1cc2c(n1)N(C)c1ccccc1S2	> 10^-5 g/ml
CN1c2cc(OCc3ccccc3)ccc2Oc2cn[nH]c21	< 10^-5 g/ml
c1ccc2c(c1)Oc1cn[nH]c1N2C1CCCCC1 [drawing 59]	> 10^-6 g/ml
CCN1c2cc(OC)ccc2Oc2cnn(C)c21 [drawing 49]	10^-6 g/ml
CN1c2ccccc2Cc2cn(C)nc21	> 10^-5 g/ml
COc1ccc2c(c1)Nc1c(cnn1C(C)=O)O2	10^-5 g/ml
COc1ccc2c(c1)Oc1cn[nH]c1N2C	< 10^-5 g/ml
COc1ccc2c(c1)Oc1cn[nH]c1N2	< 10^-6 g/ml
Cc1ccc2c(c1)Nc1c(cnn1-c1ccccc1)S2	10^-5 g/ml
Cn1cc2c(n1)N(Cc1ccccc1)c1ccccc1O2 [Compound 60]	> 10^-5 g/ml
O=C(O)Cn1cc2c(n1)N(C1CCCCC1)c1ccccc1O2 [Compound 40, 9-Cyclohexylpyrazolo[4,3-b][1,4]benzoxazine-2-acetic acid]	> 10^-5 g/ml
CN1c2ccccc2Oc2cn(CCO)nc21	> 10^-5 g/ml
CC(C)N1c2ccccc2Oc2cn[nH]c21	< 10^-6 g/ml
c1ccc(N2c3ccccc3Oc3cn[nH]c32)cc1	10^-5 g/ml
Cn1cc2c(n1)N(CC1CCCCC1)c1ccccc1O2	> 10^-5 g/ml
FC(F)(F)Sc1ccc2c(c1)Nc1[nH]ncc1O2	< 10^-5 g/ml
CCCCOc1ccc2c(c1)N(C)c1[nH]ncc1O2 [Compound 70]	< 10^-5 g/ml
CC(C)N1c2ccccc2Oc2cn(C)nc21	> 10^-5 g/ml
OCCN1c2ccccc2Oc2cn[nH]c21	< 10^-5 g/ml
CC(=O)n1cc2c(n1)N(C)c1ccccc1O2 [drawing 55]	> 10^-5 g/ml
Cn1ncc2c1N(c1ccccc1)c1ccccc1C2	> 10^-5 g/ml
CN1c2ccccc2Oc2cn(Cc3ccc(Cl)c(Cl)c3)nc21	> 10^-5 g/ml

System: carrageenan oedema
Assay: Inhibition of carrageenan oedema formation
Format: in vivo
Conditions: rat, oral administration of 25 mg/kg
Source text: The compounds according to the invention are also active in vivo. […] The compounds according to the invention also reduce the formation of oedema in the model of carrageenan inflammation, (compare Table 3) and inhibit the formation of metastases from B-16 melanoma (method of Honn, et. al. Science 212, 1270, 1981).

SMILES	inhibition in vivo at 25 mg/kg
CN1c2ccccc2Oc2cn(C(=O)c3ccccn3)nc21 [Compound 42]	67.3%
Clc1ccc2c(c1)Nc1[nH]ncc1O2 [Compound 2]	57.8%
Cc1ccc2c(c1)Nc1[nH]ncc1O2 [Compound 3]	41.4%
CCOC(=O)Cn1cc2c(n1)N(C1CCCCC1)c1ccccc1O2 [Compound 39, Ethyl (9-cyclohexylpyrazolo[4,3-b][1,4]benzoxazin-2-yl) acetate]	47.5%
c1ccc(-n2ncc3c2Nc2ccccc2O3)cc1 [Compound 9]	75.1%
O=S1(=O)c2ccccc2Nc2[nH]ncc21 [Compound 16]	45.4%
CC(=O)n1cc2c(n1)N(C)c1ccccc1O2 [Compound 44, 2-Acetyl-9-methylpyrazolo[4,3-b][1,4]benzoxazine]	70%
COc1ccc2c(c1)N(C)c1[nH]ncc1O2 [Compound 36]	60%
CC(=O)n1cc2c(n1)N(C)c1ccccc1C2 [Compound 27]	62.4%
CN1c2ccccc2Oc2cn[nH]c21 [Compound 10]	73.4%
O=C(O)Cn1cc2c(n1)N(C1CCCCC1)c1ccccc1O2 [Compound 40, 9-Cyclohexylpyrazolo[4,3-b][1,4]benzoxazine-2-acetic acid]	44%
